Measurements reported in patent US20070043104A1, “UII-modulating compounds and their use” (priority 2005, published 2007).
Where a name gives a salt, the structure may show the parent alone.

Molecular target: T1, human urotensin II receptor (Homo sapiens, UniProt Q9UKP6)
T1 construct: expressed in transfected cells; host or cells: NIH3T3 cells
T1 sequence (Q9UKP6 1-389): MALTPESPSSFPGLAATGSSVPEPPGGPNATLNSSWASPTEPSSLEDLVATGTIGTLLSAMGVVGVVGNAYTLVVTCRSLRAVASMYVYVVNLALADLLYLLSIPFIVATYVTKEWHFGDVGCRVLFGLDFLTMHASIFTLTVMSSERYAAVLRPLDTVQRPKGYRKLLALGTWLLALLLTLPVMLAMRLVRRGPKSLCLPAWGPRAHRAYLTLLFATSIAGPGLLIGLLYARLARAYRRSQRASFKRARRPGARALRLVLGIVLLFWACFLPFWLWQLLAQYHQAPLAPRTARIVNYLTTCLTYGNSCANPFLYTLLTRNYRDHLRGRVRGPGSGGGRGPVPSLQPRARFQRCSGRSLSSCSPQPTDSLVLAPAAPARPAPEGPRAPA
Assay: Receptor Selection and Amplification (R-SAT) functional assay, NIH3T3 cells transfected with human urotensin II receptor and β-galactosidase marker
Format: cell-based
Conditions: for Emax: NIH3T3, Table 4, % efficacy normalized to UII at 100%; for EC50 / pEC50: eight doses in triplicate
Experimental: The functional receptor assay, Receptor Selection and Amplification Technology (R-SAT™), was used (with minor modifications from the procedure described previously (Brann, M. R. U.S. Pat. No. 5,707,798, 1998; Chem. Abstr. 1998, 128, 111548) to screen compounds for efficacy at the UII receptor. The RSAT assay was conducted as described herein.
Briefly, NIH3T3 cells were grown in tissue culture treated rollerbottles to 40-80% confluence in Dulbecco's modified Eagle's medium (DMEM) supplemented with 10% bovine calf serum (Hyclone) and 1% penicillin/streptomycin/glutamine (Invitrogen). Cells were transfected for 12-18 hours with the human urotensin II receptor and the β-galactosidase marker. After transfection, the cells were trypsinized, harvested and frozen in DMEM containing 10% DMSO. Frozen cells were later thawed and tested for a response to a control compound to perform quality control before initiation of pharmacological testing, ensuring the correct pharmacological response and sufficient sensitivity. To initiate the pharmacological assay, cells were thawed rapidly and prepared in DMEM media containing 0.4% calf serum (Hyclone), 30% UltraCulture (Biowhittaker), and 1% penicillin/streptomycin/glutamine (Invitrogen), and then plated at 10,000-40,000 cells per well of a 96½ area plate that contained either the test compounds or reference ligands. Cells were then grown in a humidified atmosphere with 5% ambient CO2 for five days. Media was then removed from the plates and marker gene activity was measured by the addition of the beta-galactosidase substrate ONPG (in PBS with 5% NP-40). The resulting colorimetric reaction was measured in a spectrophotometric plate reader (Titertek Inc.) at […].
pEC50 represents the negative logarithm of the concentration of ligand that caused 50% activation of the basal receptor response. Percent activation was calculated as the difference between the absorbance measurements in the absence of added ligand compared with that in the presence of saturating concentrations of ligand normalized to the absorbance difference for the reference ligand, which was assigned a value of 100%.
Results were determined in R-SAT assays and are expressed as pEC50, the negative of the log EC50 in molarity. Results are the average±standard deviation of 2-X determinations of the EC50 where each compound was tested in eight doses in triplicate.

[1] = Table 4, negative of the log EC50 in molarity, average ± standard deviation of 2-5 determinations
[2] = Table 3, negative of the log EC50 in molarity, average ± standard deviation (or range) of determinations
[3] = Table 3, percent activation normalized to the reference ligand assigned 100%

**Q.** Which results are given for `COc1ccc(C=CC(=O)NC(CCN(C)C)c2ccc(Cl)cc2)cc1` (stereo not shown) [A9, N-[1-(4-Chlorophenyl)-3-dimethylamino-propyl]-4-methoxy-cinnamic amide HCl]?
**A.** Emax: 99 ± 4%; EC50 [1]: 513 nM

**Q.** What does the source list for `CN(C)CCC(NC(=O)C#Cc1ccccc1)c1ccc(Cl)cc1` (stereo not shown) [A10, N-[1-(4-Chlorophenyl)-3-dimethylamino-propyl]-3-phenylpropiolic amide HCl]?
**A.** Emax: 124 ± 6%; EC50 [1]: 398 nM

**Q.** With `Cc1ccc(C(CCN(C)C)NC(=O)Cc2ccccc2)cc1` (stereo not shown) [B1, N-[3-Dimethylamino-1-(4-methylphenyl)propyl]-2-phenylacetamide HCl] as the molecule, how does the Emax read?
**A.** Its Emax is 83 ± 11%.

**Q.** What about the EC50 [1] of the same molecule?
**A.** Its EC50 is 4170 nM.

**Q.** `Cc1ccc(C(CCN(C)C)NC(=O)Cc2ccc(C(F)(F)F)cc2)cc1` (stereo not shown) [B2, N-[3-Dimethylamino-1-(4-methylphenyl)propyl]-2-(4-trifluoromethylphenyl)acetamide HCl] was tested. Which Emax did it give?
**A.** Its Emax is 25 ± 4%.

**Q.** What about the EC50 [1] of the same molecule?
**A.** The EC50 was 1120 nM.

**Q.** Which results are given for `COc1ccc(CC(=O)NC(CCN(C)C)c2ccc(C)cc2)cc1` (stereo not shown) [B3, N-[3-Dimethylamino-1-(4-methylphenyl)propyl]-2-(4-methoxyphenyl)acetamide HCl]?
**A.** Emax: 62 ± 5%; EC50 [1]: 5890 nM

**Q.** `Cc1ccc(C(CCN(C)C)NC(=O)CCc2ccccc2)cc1` (stereo not shown) [B4, N-[3-Dimethylamino-1-(4-methylphenyl)propyl]-3-phenylpropionamide HCl] was tested. Which Emax did it give?
**A.** Its Emax is 73 ± 9%.

**Q.** And the EC50 [1]?
**A.** Its EC50 is 4570 nM.

**Q.** For `Cc1ccc(C(CCN(C)C)NC(=O)CCc2ccc(C(F)(F)F)cc2)cc1` (stereo not shown) [B5, N-[3-Dimethylamino-1-(4-methylphenyl)propyl]-3-(4-trifluoromethylphenyl) propionamide HCl], which Emax is on record?
**A.** Its Emax is 60 ± 6%.

**Q.** And the EC50 [1]?
**A.** The EC50 was 2290 nM.

**Q.** Which Emax does the source give for `COc1ccc(CCC(=O)NC(CCN(C)C)c2ccc(C)cc2)cc1` (stereo not shown) [B6, N-[3-Dimethylamino-1-(4-methylphenyl)propyl]-3-(4-methoxyphenyl)propionamide HCl] here?
**A.** The Emax was 67 ± 14%.

**Q.** And the EC50 [1]?
**A.** Its EC50 is 5370 nM.

**Q.** What does the source list for `Cc1ccc(C(CCN(C)C)NC(=O)C=Cc2ccccc2)cc1` (stereo not shown) [B7, N-[3-Dimethylamino-1-(4-methylphenyl)propyl]cinnamic amide]?
**A.** Emax: 97 ± 6%; EC50 [1]: 1550 nM

**Q.** What does the source list for `Cc1ccc(C(CCN(C)C)NC(=O)C=Cc2ccc(C(F)(F)F)cc2)cc1` (stereo not shown) [B8, N-[3-Dimethylamino-1-(4-methylphenyl)propyl]-4-trifluoromethyl-cinnamic amide HCl]?
**A.** Emax: 96 ± 1%; EC50 [1]: 437 nM

**Q.** With `COc1ccc(C=CC(=O)NC(CCN(C)C)c2ccc(C)cc2)cc1` (stereo not shown) [B9, N-[3-Dimethylamino-1-(4-methylphenyl)propyl]-4-methoxy-cinnamic amide HCl] as the molecule, how does the Emax read?
**A.** Its Emax is 79 ± 14%.

**Q.** What about the EC50 [1] of the same molecule?
**A.** The EC50 was 2000 nM.

**Q.** For `Cc1ccc(C(CCN(C)C)NC(=O)C#Cc2ccccc2)cc1` (stereo not shown) [B10, N-[3-Dimethylamino-1-(4-methylphenyl)propyl]-3-phenylpropiolic amide], which Emax is on record?
**A.** The Emax was 131%.

**Q.** What about the EC50 [1] of the same molecule?
**A.** The EC50 was 3090 nM.

**Q.** With `CN(C)CCC(NC(=O)Cc1ccccc1)c1ccc2ccccc2c1` (stereo not shown) [C1, N-[3-Dimethylamino-1-(2-naphthyl)propyl]-2-phenylacetamide HCl] as the molecule, how does the Emax read?
**A.** Its Emax is 121 ± 31%.

**Q.** What about the EC50 [1] of the same molecule?
**A.** Its EC50 is 1740 nM.

**Q.** What does the source list for `CN(C)CCC(NC(=O)Cc1ccc(C(F)(F)F)cc1)c1ccc2ccccc2c1` (stereo not shown) [C2, N-[3-Dimethylamino-1-(2-naphthyl)propyl]-2-(4-trifluoromethylphenyl)acetamide HCl]?
**A.** Emax: 40 ± 3%; EC50 [1]: 575 nM

**Q.** For `CN(C)CCC(NC(=O)CCc1ccccc1)c1ccc2ccccc2c1` (stereo not shown) [C4, N-[3-Dimethylamino-1-(2-naphthyl)propyl]-3-phenyl-propionamide HCl], which Emax is on record?
**A.** The Emax was 107 ± 22%.

**Q.** What about the EC50 [1] of the same molecule?
**A.** The EC50 was 603 nM.

**Q.** With `CC(C(=O)NC(CCN(C)C)c1ccc2ccccc2c1)c1ccc(C(F)(F)F)cc1` (stereo not shown) [C5, N-[3-Dimethylamino-1-(2-naphthyl)propyl]-2-(4-trifluoromethylphenyl)propionamide HCl] as the molecule, how does the Emax read?
**A.** The Emax was 75 ± 1%.

**Q.** What about the EC50 [1] of the same molecule?
**A.** The EC50 was 372 nM.

**Q.** With `COc1ccc(CCC(=O)NC(CCN(C)C)c2ccc3ccccc3c2)cc1.Cl` (stereo not shown) [C6] as the molecule, how does the Efficacy (Table 4, % efficacy normalized to UII at 100%) read?
**A.** Its Efficacy is 113 ± 9%.

**Q.** What about the pEC50 [1] of the same molecule?
**A.** The pEC50 was 5.85 ± 0.11.

**Q.** For `CN(C)CCC(NC(=O)/C=C/c1ccccc1)c1ccc2ccccc2c1` (stereo not shown) [C7, N-[3-Dimethylamino-1-(2-naphthyl)propyl]-3-cinnamic amide HCl], which Emax is on record?
**A.** The Emax was 116 ± 3%.

**Q.** What about the EC50 [1] of the same molecule?
**A.** The EC50 was 589 nM.

**Q.** With `CN(C)CCC(NC(=O)C=Cc1ccc(C(F)(F)F)cc1)c1ccc2ccccc2c1` (stereo not shown) [C8, N-[3-Dimethylamino-1-(2-naphthyl)propyl]-4-trifluoromethyl-cinnamic amide HCl] as the molecule, how does the Emax read?
**A.** Its Emax is 117 ± 1%.

**Q.** What about the EC50 [1] of the same molecule?
**A.** The EC50 was 135 nM.

**Q.** For `COc1ccc(C=CC(=O)NC(CCN(C)C)c2ccc3ccccc3c2)cc1` (stereo not shown) [C9, N-[3-Dimethylamino-1-(2-naphthyl)propyl]-4-methoxy-cinnamic amide HCl], which Emax is on record?
**A.** The Emax was 106 ± 16%.

**Q.** What about the EC50 [1] of the same molecule?
**A.** Its EC50 is 380 nM.

**Q.** What does the source list for `CN(C)CCC(NC(=O)C#Cc1ccccc1)c1ccc2ccccc2c1` (stereo not shown) [C10, N-[3-Dimethylamino-1-(2-naphthyl)propyl]-3-phenylpropiolic amide HCl]?
**A.** Emax: 115 ± 14%; EC50 [1]: 457 nM

**Q.** Which pEC50 [2] does the source give for “(+)-N-[1-Chlorophenyl)-3-dimethylaminopropyl]-(R)-2-methoxy-2-phenyl-acetamide oxalate [(+) 5s]” here?
**A.** The pEC50 was 5.30 ± 0.07.

**Q.** And the Efficacy [3]?
**A.** The Efficacy was 112 ± 22%.

**Q.** What does the source list for “N-[1-(4-Chlorophenyl)-3-dimethylaminopropyloxycarbonyl]-4-phenyl-amine [7f]”?
**A.** pEC50 [2]: 6.44-6.67; Efficacy [3]: 43-75%
